Experimental data reported in US12673975B2, “Cyclic peptide, cell scaffold material, cell separating material, and medium” (FUJIFILM Corporation, priority 2019, dated 2026).
Read-outs that look alike come from different tables or passages of the source. Starred links: 1 amine or outer side, 2 acyl side, 3 side chain; linkers in the order of their positions; H or OH if unused. Positions of bridges follow the written chain, without caps; N, C: chain ends. Non-standard residues stand in square brackets, D forms with d. Residues, ends and D or L forms follow the SMILES beside them. Pen = CC(C)(S)[C@H](N)C(=O)O; hCys = N[C@@H](CCS)C(=O)O; Dab = NCC[C@H](N)C(=O)O; Dap = NC[C@H](N)C(=O)O; X1 = O=C(C[*:2])[*:1]; X2 = O=C(C[*:1])[*:2]

Experiments:
[1] = biological target: human integrin αvβ5 (Homo sapiens, UniProt P06756+P18084); assay: Evaluation of integrin binding property (surface plasmon resonance, Biacore 3000, immobilized cyclic peptide)
human integrin αvβ5, sequence (P06756 31-1048): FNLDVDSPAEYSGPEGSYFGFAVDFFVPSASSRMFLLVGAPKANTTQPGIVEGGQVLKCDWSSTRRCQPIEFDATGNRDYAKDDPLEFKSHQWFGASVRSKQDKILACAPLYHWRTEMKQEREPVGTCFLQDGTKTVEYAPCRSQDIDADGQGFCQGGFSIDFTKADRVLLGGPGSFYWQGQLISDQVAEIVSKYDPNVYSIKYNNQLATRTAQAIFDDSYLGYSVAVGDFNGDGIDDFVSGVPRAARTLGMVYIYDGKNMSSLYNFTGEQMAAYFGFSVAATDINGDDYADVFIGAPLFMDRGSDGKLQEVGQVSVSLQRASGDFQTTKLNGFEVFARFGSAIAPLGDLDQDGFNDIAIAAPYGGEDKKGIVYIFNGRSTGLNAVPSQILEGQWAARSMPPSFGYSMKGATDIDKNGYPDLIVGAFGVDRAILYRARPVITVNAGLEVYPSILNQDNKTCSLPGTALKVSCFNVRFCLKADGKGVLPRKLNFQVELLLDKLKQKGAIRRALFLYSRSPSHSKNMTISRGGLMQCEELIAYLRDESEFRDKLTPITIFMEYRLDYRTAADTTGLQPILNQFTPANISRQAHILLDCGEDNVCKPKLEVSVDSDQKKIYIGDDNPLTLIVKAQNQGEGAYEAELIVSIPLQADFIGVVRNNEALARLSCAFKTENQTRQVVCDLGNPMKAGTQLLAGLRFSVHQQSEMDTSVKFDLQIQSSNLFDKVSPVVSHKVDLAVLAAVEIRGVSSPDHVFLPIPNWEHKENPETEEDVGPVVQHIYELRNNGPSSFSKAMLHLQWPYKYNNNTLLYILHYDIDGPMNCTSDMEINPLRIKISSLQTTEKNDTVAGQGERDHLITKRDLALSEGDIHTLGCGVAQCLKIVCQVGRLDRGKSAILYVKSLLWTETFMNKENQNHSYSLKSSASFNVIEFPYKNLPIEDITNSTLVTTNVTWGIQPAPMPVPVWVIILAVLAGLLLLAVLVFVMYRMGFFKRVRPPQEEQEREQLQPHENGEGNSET
human integrin αvβ5, sequence (P18084 24-799): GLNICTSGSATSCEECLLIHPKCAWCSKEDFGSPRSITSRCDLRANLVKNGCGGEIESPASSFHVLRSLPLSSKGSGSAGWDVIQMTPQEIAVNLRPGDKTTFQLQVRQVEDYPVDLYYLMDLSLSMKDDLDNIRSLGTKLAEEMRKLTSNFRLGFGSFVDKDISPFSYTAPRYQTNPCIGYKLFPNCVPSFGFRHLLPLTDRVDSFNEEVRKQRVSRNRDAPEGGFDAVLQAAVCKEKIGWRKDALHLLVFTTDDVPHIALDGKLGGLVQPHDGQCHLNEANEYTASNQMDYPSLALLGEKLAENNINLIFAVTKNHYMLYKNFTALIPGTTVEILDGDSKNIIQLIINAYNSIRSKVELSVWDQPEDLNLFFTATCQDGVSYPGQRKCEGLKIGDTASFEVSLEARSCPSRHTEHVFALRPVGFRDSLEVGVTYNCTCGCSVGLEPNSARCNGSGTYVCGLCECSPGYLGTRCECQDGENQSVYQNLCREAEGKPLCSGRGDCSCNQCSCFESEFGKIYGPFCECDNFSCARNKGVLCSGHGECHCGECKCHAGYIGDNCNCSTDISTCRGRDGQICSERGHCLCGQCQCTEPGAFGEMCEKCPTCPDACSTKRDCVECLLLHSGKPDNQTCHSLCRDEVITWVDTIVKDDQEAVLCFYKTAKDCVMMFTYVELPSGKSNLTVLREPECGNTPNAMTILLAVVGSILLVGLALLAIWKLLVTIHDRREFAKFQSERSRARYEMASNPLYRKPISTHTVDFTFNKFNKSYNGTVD
Method in brief: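 Human αvβ5 (30-1,000 nM) flowed for 10 min at 25 °C over immobilized cyclic peptide in 20 mM HEPES, 150 mM NaCl, 5 mM MgCl2, pH 7.4, followed by 30 min running buffer and 0.5 M EDTA regeneration. Dissociation constant from peptide minus unimmobilized channel, scored into standard grades.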

[2] = Evaluation of molecule stability (alkali treatment, residual rate by LC/MS); type: physicochemical; details: for Stability (molecule stability, residual rate of the cyclic peptide rank): alkali treatment, residual rate by LC/MS; for Performance evaluation: Stability (residual rate of cyclic peptide after alkali treatment): 500 μM peptide aqueous solution plus equivalent of 1 M sodium hydroxide, 15° C., 3 hours, LC/MS peak area
Method in brief: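 Stability read as percent of summed LC/MS peak area remaining versus untreated peptide (C18, 45 °C, 10 mM ammonium formate pH 3, ESI positive/negative). Treatment: 500 μM peptide in water plus an equivalent of 1 M NaOH, 15 °C for 3 hours.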

[3] = surface plasmon resonance, immobilized cyclic peptide, human integrin αvβ5, read-out: Binding activity (integrin binding property, dissociation constant rank)
[4] = SPR, 25° C., HEPES buffer with 5 mM magnesium chloride, integrin 30-1,000 nM, read-out: Performance evaluation: Binding activity (dissociation constant between the cyclic peptide and human integrin αvβ5)

Compound | Kd [1, 3] [nM] | Stability (molecule stability, residual rate of the cyclic peptide rank) [2] | Kd [1, 4] [nM] | Performance evaluation: Stability (residual rate of cyclic peptide after alkali treatment) [2]
CC(C)[C@@H]1NC(=O)[C@H](CC(=O)O)NC(=O)CNC(=O)[C@H](CCCNC(=N)N)NC(=O)[C@@H]2CCCN2C(=O)[C@H](C(C)C)NC(=O)[C@@H](NC(=O)[C@H](CCCCN)NC(=O)[C@H](CCCCN)NC(=O)[C@@H](N)CCCCN)CCSCC(=O)NCC[C@@H](C(=O)O)NC(=O)[C@H](C)NC(=O)[C@H](Cc2ccccc2)NC1=O [Cyclic peptide 151, KKK-(Hcy)-VPRGDVFA(Dab(acetyl))] (H-KKK[hCys]VPRGDVFA[Dab]-OH; linker 4-13 via X2) | < 50 | A (The residual rate of the cyclic peptide is 70% or more.) |  | 
CC(C)[C@@H]1NC(=O)[C@@H](NC(=O)[C@H](C)NC(=O)[C@H](CCCCN)NC(=O)[C@H](CCCCN)NC(=O)[C@@H](N)CCCCN)CCSCC(=O)NCCCC[C@@H](C(=O)N[C@@H](C)C(=O)O)NC(=O)[C@H](C)NC(=O)[C@H](Cc2ccccc2)NC(=O)[C@H]([C@@H](C)O)NC(=O)[C@H](CC(=O)O)NC(=O)CNC(=O)[C@H](CCCNC(=N)N)NC(=O)[C@@H]2CCCN2C1=O [Cyclic peptide 121, KKKA-(Hcy)-VPRGDTFA(Lys(acetyl))A] (H-KKKA[hCys]VPRGDTFAKA-OH; linker 5-14 via X2) | < 50 | A (The residual rate of the cyclic peptide is 70% or more.) |  | 
CC[C@H](C)[C@@H]1NC(=O)[C@@H](NC(=O)CNC(=O)[C@H](CCCCN)NC(=O)[C@H](CCCCN)NC(=O)[C@@H](N)CCCCN)C(C)(C)SCC(=O)NC[C@@H](C(=O)N[C@@H](C)C(=O)O)NC(=O)[C@H](CCCNC(=N)N)NC(=O)[C@H](Cc2ccccc2)NC(=O)[C@H]([C@@H](C)O)NC(=O)[C@H](CC(=O)O)NC(=O)CNC(=O)[C@H](CCCNC(=N)N)NC(=O)[C@@H]2CCCN2C1=O [Cyclic peptide 128, KKKG-(Pen)-IPRGDTFR(Dap(acetyl))A] (H-KKKG[Pen]IPRGDTFR[Dap]A-OH; linker 5-14 via X2) | < 50 | B (The residual rate of the cyclic peptide is 50% or more and less than 70%.) |  | 
CC[C@H](C)[C@@H]1NC(=O)[C@@H](NC(=O)[C@H](C)NC(=O)[C@H](CCCCN)NC(=O)[C@H](CCCCN)NC(=O)[C@@H](N)CCCCN)CCSCC(=O)NCC[C@@H](C(=O)N[C@@H](C)C(=O)O)NC(=O)[C@H](CO)NC(=O)[C@H](Cc2ccccc2)NC(=O)[C@H]([C@@H](C)O)NC(=O)[C@H](CC(=O)O)NC(=O)CNC(=O)[C@H](CCCNC(=N)N)NC(=O)[C@@H]2CCCN2C1=O [Cyclic peptide 83, KKKA-(Hcy)-IPRGDTFS(Dab(acetyl))A] (H-KKKA[hCys]IPRGDTFS[Dab]A-OH; linker 5-14 via X2) |  |  | < 50 | A (The residual rate of the cyclic peptide is 70% or more.)
C[C@H](NC(=O)[C@H](CCCCN)NC(=O)[C@H](CCCCN)NC(=O)[C@@H](N)CCCCN)C(=O)N[C@H]1CCSCC(=O)NCC[C@@H](C(=O)O)NC(=O)[C@H](C)NC(=O)[C@H](Cc2ccccc2)NC(=O)[C@H]([C@@H](C)O)NC(=O)[C@H](CC(=O)O)NC(=O)CNC(=O)[C@H](CCCNC(=N)N)NC(=O)[C@@H]2CCCN2C(=O)[C@H]([C@@H](C)O)NC1=O [Cyclic peptide 158, KKKA-(Hcy)-TPRGDTFA(Dab(acetyl))] (H-KKKA[hCys]TPRGDTFA[Dab]-OH; linker 5-14 via X2) | < 50 | A (The residual rate of the cyclic peptide is 70% or more.) |  | 
N=C(N)NCCC[C@@H]1NC(=O)[C@H](Cc2ccc(O)cc2)NC(=O)[C@H](CC(N)=O)NC(=O)[C@H](CC(=O)O)NC(=O)CNC(=O)[C@H](CCCNC(=N)N)NC(=O)[C@@H]2CCCN2C(=O)[C@H](CCC(=O)O)NC(=O)[C@@H](NC(=O)[C@H](CCCCN)NC(=O)[C@H](CCCCN)NC(=O)[C@@H](N)CCCCN)CNC(=O)CSCC[C@@H](C(N)=O)NC1=O [Cyclic peptide 52, KKK(Dap(acetyl))EPRGDNYR-(Hcy)] (H-KKK[Dap]EPRGDNYR[hCys]-NH2; linker 4-13 via X1) |  |  | 50 to 100 | B (The residual rate of the cyclic peptide is 50% or more and less than 70%.)
CC(C)[C@@H]1NC(=O)[C@@H](NC(=O)[C@H](CCCCN)NC(=O)[C@H](CCCCN)NC(=O)[C@@H](N)CCCCN)CCSCC(=O)NCC[C@@H](C(=O)O)NC(=O)[C@H](CO)NC(=O)[C@H](Cc2ccccc2)NC(=O)[C@H]([C@@H](C)O)NC(=O)[C@H](CC(=O)O)NC(=O)CNC(=O)[C@H](CCCNC(=N)N)NC(=O)[C@@H]2CCCN2C1=O [Cyclic peptide 153, KKK-(Hcy)-VPRGDTFS(Dab(acetyl))] (H-KKK[hCys]VPRGDTFS[Dab]-OH; linker 4-13 via X2) | < 50 | A (The residual rate of the cyclic peptide is 70% or more.) |  | 
CC[C@H](C)[C@@H]1NC(=O)[C@@H](NC(=O)CNC(=O)[C@H](CCCCN)NC(=O)[C@H](CCCCN)NC(=O)[C@@H](N)CCCCN)CCNC(=O)CSCC[C@@H](C(=O)N[C@@H](C)C(=O)O)NC(=O)[C@H](CCCNC(=N)N)NC(=O)[C@H](Cc2ccccc2)NC(=O)[C@H]([C@@H](C)O)NC(=O)[C@H](CC(=O)O)NC(=O)CNC(=O)[C@H](CCCNC(=N)N)NC(=O)[C@@H]2CCCN2C1=O [Cyclic peptide 118, KKKG(Dab(acetyl))IPRGDTFR-(Hcy)-A] (H-KKKG[Dab]IPRGDTFR[hCys]A-OH; linker 5-14 via X1) | < 50 | A (The residual rate of the cyclic peptide is 70% or more.) |  | 
CC[C@H](C)[C@@H]1NC(=O)[C@@H](NC(=O)CNC(=O)[C@H](CCCCN)NC(=O)[C@H](CCCCN)NC(=O)[C@@H](N)CCCCN)CCSCC(=O)NCC[C@@H](C(=O)N[C@@H](C)C(=O)O)NC(=O)[C@H](Cc2ccccc2)NC(=O)[C@H](CC(N)=O)NC(=O)[C@H](CC(=O)O)NC(=O)CNC(=O)[C@H](CCCNC(=N)N)NC(=O)[C@@H]2CCCN2C1=O [Cyclic peptide 6, KKKG-(Hcy)-IPRGDNF(Dab(acetyl))A] (H-KKKG[hCys]IPRGDNF[Dab]A-OH; linker 5-13 via X2) |  |  | 50 to 100 | A (The residual rate of the cyclic peptide is 70% or more.)
C[C@H](NC(=O)[C@H](CCCCN)NC(=O)[C@H](CCCCN)NC(=O)[C@@H](N)CCCCN)C(=O)N[C@H]1CCSCC(=O)NCC[C@@H](C(=O)O)NC(=O)[C@H](CCCNC(=N)N)NC(=O)[C@H](Cc2ccc(O)cc2)NC(=O)[C@H](CC(N)=O)NC(=O)[C@H](CC(=O)O)NC(=O)CNC(=O)[C@H](CCCNC(=N)N)NC(=O)[C@@H]2CCCN2C(=O)[C@H](CCC(=O)O)NC1=O [Cyclic peptide 45, KKKA-(Hcy)-EPRGDNYR(Dab(acetyl))] (H-KKKA[hCys]EPRGDNYR[Dab]-OH; linker 5-14 via X2) |  |  | 50 to 100 | A (The residual rate of the cyclic peptide is 70% or more.)
N=C(N)NCCC[C@@H]1NC(=O)[C@H](Cc2ccc(O)cc2)NC(=O)[C@H](CC(N)=O)NC(=O)[C@H](CC(=O)O)NC(=O)CNC(=O)[C@H](CCCNC(=N)N)NC(=O)[C@@H]2CCCN2C(=O)[C@H](CCC(=O)O)NC(=O)[C@@H](NC(=O)CNC(=O)[C@H](CCCCN)NC(=O)[C@H](CCCCN)NC(=O)[C@@H](N)CCCCN)CCSCC(=O)NCC[C@@H](C(=O)N[C@@H](CC(=O)O)C(=O)O)NC1=O [Cyclic peptide 37, KKKG-(Hcy)-EPRGDNYR(Dab(acetyl))D] (H-KKKG[hCys]EPRGDNYR[Dab]D-OH; linker 5-14 via X2) |  |  | 50 to 100 | A (The residual rate of the cyclic peptide is 70% or more.)
CC(C)[C@@H]1NC(=O)[C@H](CC(=O)O)NC(=O)CNC(=O)[C@H](CCCNC(=N)N)NC(=O)[C@@H]2CCCN2C(=O)[C@H](C(C)C)NC(=O)[C@@H](NC(=O)[C@H](CCCCN)NC(=O)[C@H](CCCCN)NC(=O)[C@@H](N)CCCCN)CCSCC(=O)NCC[C@@H](C(=O)O)NC(=O)[C@H](Cc2ccccc2)NC1=O [Cyclic peptide 66, KKK-(Hcy)-VPRGDVF(Dab(acetyl))] (H-KKK[hCys]VPRGDVF[Dab]-OH; linker 4-12 via X2) |  |  | < 50 | A (The residual rate of the cyclic peptide is 70% or more.)
CC(C)[C@@H]1NC(=O)[C@@H](NC(=O)CNC(=O)[C@H](CCCCN)NC(=O)[C@H](CCCCN)NC(=O)[C@@H](N)CCCCN)CCSCC(=O)NCC[C@@H](C(=O)N[C@@H](C)C(=O)O)NC(=O)[C@H](CCCNC(=N)N)NC(=O)[C@H](Cc2ccccc2)NC(=O)[C@H]([C@@H](C)O)NC(=O)[C@H](CC(=O)O)NC(=O)CNC(=O)[C@H](CCCNC(=N)N)NC(=O)[C@@H]2CCCN2C1=O [Cyclic peptide 70, KKKG-(Hcy)-VPRGDTFR(Dab(acetyl))A] (H-KKKG[hCys]VPRGDTFR[Dab]A-OH; linker 5-14 via X2) |  |  | < 50 | A (The residual rate of the cyclic peptide is 70% or more.)
